How the values were obtained:
[1] = molecular target: Serotonin 2 (5-HT2) receptor (Homo sapiens, UniProt P41595+P28223+P28335); assay: Inhibitory concentration against 5-hydroxytryptamine 2 receptor; format: protein assay
[2] = molecular target: T1, Adrenergic receptor alpha-1 (Rattus norvegicus, UniProt P15823+P23944+P43140); assay: Binding affinity towards Alpha-1 adrenergic receptor in rat brain using [3H]prazosin as radioligand; format: tissue-based
T1 sequence (P15823 whole entry): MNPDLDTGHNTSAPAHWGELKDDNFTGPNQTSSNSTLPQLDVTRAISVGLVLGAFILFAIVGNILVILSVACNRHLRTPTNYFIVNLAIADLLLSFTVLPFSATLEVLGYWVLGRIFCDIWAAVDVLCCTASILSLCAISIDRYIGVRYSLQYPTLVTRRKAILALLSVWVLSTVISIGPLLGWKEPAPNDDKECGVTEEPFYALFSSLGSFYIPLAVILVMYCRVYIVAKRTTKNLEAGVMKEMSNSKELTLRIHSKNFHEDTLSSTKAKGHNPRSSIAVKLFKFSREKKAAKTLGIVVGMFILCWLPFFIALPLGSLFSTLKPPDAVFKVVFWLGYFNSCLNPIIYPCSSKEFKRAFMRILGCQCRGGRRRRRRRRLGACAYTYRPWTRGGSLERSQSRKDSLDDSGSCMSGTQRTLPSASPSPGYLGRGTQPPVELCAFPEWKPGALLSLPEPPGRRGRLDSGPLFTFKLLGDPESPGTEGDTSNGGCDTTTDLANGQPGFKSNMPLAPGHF
T1 sequence (P23944 whole entry): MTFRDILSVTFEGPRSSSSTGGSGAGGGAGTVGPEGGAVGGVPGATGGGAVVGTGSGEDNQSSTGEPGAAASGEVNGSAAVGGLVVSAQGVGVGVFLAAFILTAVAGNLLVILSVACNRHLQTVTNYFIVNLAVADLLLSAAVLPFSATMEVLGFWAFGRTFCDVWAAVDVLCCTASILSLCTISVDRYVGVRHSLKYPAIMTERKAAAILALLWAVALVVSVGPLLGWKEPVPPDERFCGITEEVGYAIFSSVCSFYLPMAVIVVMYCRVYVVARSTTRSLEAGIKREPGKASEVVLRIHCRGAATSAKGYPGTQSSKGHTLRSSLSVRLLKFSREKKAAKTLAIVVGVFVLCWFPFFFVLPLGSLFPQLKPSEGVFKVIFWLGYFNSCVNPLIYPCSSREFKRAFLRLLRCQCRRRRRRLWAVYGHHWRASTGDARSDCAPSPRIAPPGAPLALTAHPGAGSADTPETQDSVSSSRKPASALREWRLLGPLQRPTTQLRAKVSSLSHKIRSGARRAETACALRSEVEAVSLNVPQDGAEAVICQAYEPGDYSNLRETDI
T1 sequence (P43140 whole entry): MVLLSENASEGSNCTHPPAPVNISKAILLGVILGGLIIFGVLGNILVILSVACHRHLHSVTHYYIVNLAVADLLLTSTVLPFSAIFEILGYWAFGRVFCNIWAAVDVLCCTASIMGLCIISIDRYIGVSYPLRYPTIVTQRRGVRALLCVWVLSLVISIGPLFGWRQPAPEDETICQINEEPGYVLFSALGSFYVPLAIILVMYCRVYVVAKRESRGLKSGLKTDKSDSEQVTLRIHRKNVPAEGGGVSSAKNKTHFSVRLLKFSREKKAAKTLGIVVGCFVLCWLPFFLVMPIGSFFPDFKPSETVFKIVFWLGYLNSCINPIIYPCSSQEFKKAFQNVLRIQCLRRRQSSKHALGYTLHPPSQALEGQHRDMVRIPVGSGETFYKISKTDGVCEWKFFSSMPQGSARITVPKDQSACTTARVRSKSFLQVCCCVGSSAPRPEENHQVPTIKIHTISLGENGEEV

[3] = molecular target: Histamine H1 receptor (Cavia porcellus, UniProt P31389); assay: Inhibitory concentration against histamine-H1 receptor
[4] = species: Rattus norvegicus; assay: Effective dose against Histamine-induced skin vascular permeability model in rat after 4 hr (n = 5); format: functional
[5] = species: Rattus norvegicus; assay: Effective dose against Histamine-induced skin vascular permeability model in rat after 8 hr (n = 5); format: functional
[6] = molecular target: Histamine H1 receptor (Mus musculus) (UniProt P70174); assay: Ex vivo effective binding dose against histamine-H1 receptor (n = 3)
[7] = test system: Rattus norvegicus; assay: Inhibition of Histamine-induced skin vascular permeability model in rat after 4 hr at 1 mg/Kg (n = 5); format: functional

Histamine H1 receptor (Mus musculus), sequence (P70174 whole entry, looked up): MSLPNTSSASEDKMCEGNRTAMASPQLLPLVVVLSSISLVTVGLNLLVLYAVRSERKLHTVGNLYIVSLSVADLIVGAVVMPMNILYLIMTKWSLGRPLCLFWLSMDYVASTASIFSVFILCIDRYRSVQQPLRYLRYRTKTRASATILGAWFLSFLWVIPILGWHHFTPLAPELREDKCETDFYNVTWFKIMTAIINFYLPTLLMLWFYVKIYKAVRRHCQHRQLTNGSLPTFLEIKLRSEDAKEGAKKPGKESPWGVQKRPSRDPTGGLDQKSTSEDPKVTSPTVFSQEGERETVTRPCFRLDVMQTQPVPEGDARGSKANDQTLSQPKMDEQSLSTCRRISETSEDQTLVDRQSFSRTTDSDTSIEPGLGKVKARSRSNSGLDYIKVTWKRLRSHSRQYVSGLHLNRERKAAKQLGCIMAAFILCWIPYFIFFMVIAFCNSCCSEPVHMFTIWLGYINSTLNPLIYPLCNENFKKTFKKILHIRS
Histamine H1 receptor, sequence (P31389 whole entry): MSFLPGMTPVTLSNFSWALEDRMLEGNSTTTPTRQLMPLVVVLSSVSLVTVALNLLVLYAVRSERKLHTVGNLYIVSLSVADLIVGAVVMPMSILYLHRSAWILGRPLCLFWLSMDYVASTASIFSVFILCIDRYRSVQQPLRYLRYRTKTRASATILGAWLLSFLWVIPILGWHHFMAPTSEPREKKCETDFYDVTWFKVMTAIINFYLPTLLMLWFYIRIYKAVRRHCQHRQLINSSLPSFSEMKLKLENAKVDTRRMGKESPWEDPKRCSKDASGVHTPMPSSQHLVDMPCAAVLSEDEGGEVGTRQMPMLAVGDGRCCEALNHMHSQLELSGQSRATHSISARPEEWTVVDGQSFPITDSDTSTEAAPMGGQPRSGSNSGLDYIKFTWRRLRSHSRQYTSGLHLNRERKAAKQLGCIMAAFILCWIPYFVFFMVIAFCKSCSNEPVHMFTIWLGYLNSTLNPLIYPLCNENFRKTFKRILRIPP

## COc1ccc(CN2CCC(c3cn(Cc4ccc(Cl)s4)c4ccccc34)CC2)cc1C(=O)O
[1]
  IC50: 10 µM
[2]
  IC50: > 10 µM
[3]
  IC50: 0.365 µM
[4]
  ED50: 0.5 mg/kg
[5]
  ED50: 0.7 mg/kg
[6]
  ED50: 57 mg/kg

## O=C(O)c1cccc(CN2CCC(c3cn(Cc4ccoc4)c4ccccc34)CC2)c1
[1]
  IC50: 10 µM
[2]
  IC50: > 10 µM
[3]
  IC50: 0.56 µM
[4]
  ED50: 1 mg/kg

## COc1ccc(CN2CCC(c3cn(Cc4ccoc4)c4ccccc34)CC2)cc1C(=O)O
[1]
  IC50: 10 µM
[2]
  IC50: > 10 µM
[3]
  IC50: 0.205 µM
[4]
  ED50: 0.2 mg/kg
[5]
  ED50: 0.2 mg/kg
[6]
  ED50: 15 mg/kg

## CCOCCn1cc(C2CCN(Cc3cccc(C(=O)O)c3)CC2)c2ccccc21
[1]
  IC50: 4.95 µM
[2]
  IC50: > 10 µM
[3]
  IC50: 0.403 µM
[4]
  ED50: 0.07 mg/kg
[5]
  ED50: 0.45 mg/kg
[6]
  ED50: 16 mg/kg

## CCOCCn1cc(C2CCN(CCOc3ccccc3C=O)CC2)c2ccccc21
[1]
  IC50: 3.272 µM
[2]
  IC50: 10 µM
[3]
  IC50: 0.086 µM
[4]
  ED50: 0.1 mg/kg
[5]
  ED50: 0.22 mg/kg
[6]
  ED50: 8 mg/kg

## O=C(O)c1cccc(CN2CCC(c3cn(Cc4ccc(Cl)s4)c4ccccc34)CC2)c1
[1]
  IC50: > 10 µM
[2]
  IC50: > 10 µM
[7]
  inhibition in vivo at 1 mg/kg: 7%
[3]
  IC50: 0.33 µM

## CCCCn1cc(C2CCN(Cc3cccc(C(=O)O)c3)CC2)c2ccccc21
[1]
  IC50: > 10 µM
[2]
  IC50: > 10 µM
[3]
  IC50: 0.275 µM
[4]
  ED50: 1 mg/kg

## CCOCCn1cc(C2CCN(Cc3ccc(OC)c(C(=O)O)c3)CC2)c2ccccc21
[1]
  IC50: 10 µM
[2]
  IC50: > 10 µM
[3]
  IC50: 0.69 µM
[4]
  ED50: 0.05 mg/kg
[6]
  ED50: 5.4 mg/kg

## CCOCCn1cc(C2CCN(CCOc3ccccc3C(=O)O)CC2)c2ccccc21
[1]
  IC50: > 10 µM
[2]
  IC50: > 10 µM
[3]
  IC50: 0.19 µM
[4]
  ED50: 0.08 mg/kg
[5]
  ED50: 0.02 mg/kg
[6]
  ED50: 34 mg/kg

## CCCCn1cc(C2CCN(Cc3ccc(OC)c(C(=O)O)c3)CC2)c2ccccc21
[1]
  IC50: > 10 µM
[2]
  IC50: > 10 µM
[3]
  IC50: 0.475 µM
[4]
  ED50: 0.08 mg/kg
[5]
  ED50: 0.13 mg/kg
[6]
  ED50: 69 mg/kg
